Measured values: patent publication US20090312340A1 (priority 2007, published 2009)

Assays:
women with NSTE ACS = test: MERLIN-TIMI 36: outcomes in women with NSTE ACS; type: in vivo, human; conditions: ranolazine vs placebo
[1] = test system: patients with non-ST elevation acute coronary syndrome; test: MERLIN-TIMI 36: arrhythmias on continuous ECG (Holter) recording, first 7 days; type: in vivo, human
Description: The safety endpoint data for incidence of clinically significant arrhythmias during 7 day Holter monitoring from MERLIN-TIMI 36 is shown in Table 24 below.
Continuous ECG (Holter) recording was performed for the first 7 days after randomization. Because of the known prolongation of the QT interval with ranolazine, analyses of a prespecified set of arrhythmias were a major objective of the trial. All arrhythmias were evaluated in the TIMI ECG Core Laboratory by cardiologists blinded to treatment and outcomes.
Continuous ECG (cECG or Holter) recording was performed for the first 7 days after randomization. Prespecified arrhythmia analyses were evaluated by a core laboratory blinded to treatment and outcomes.

[2] = test system: patients with non-ST elevation acute coronary syndrome; test: MERLIN-TIMI 36: safety endpoints (death from any cause, symptomatic documented arrhythmias, CV hospitalization); type: in vivo
[3] = test system: patients with non-ST elevation acute coronary syndrome; test: MERLIN-TIMI 36: ischemia on Holter / continuous ECG (CECG); type: in vivo, human; conditions: >72 hours after randomization, ranolazine vs placebo
Description: At randomization, 6355 patients (99%) had 3-lead CECG monitoring initiated (median duration 6.9 days). The primary CECG endpoint was the rate of ST dep>1 mm from baseline lasting >1 minute with heart rate at onset <100 bpm. Exploratory analyses using ST dep>0.5 mm were also performed.

[4] = test system: patients with non-ST elevation acute coronary syndrome; test: MERLIN-TIMI 36: arrhythmias on continuous ECG (Holter) recording, first 7 days; type: in vivo, human; conditions: group allocated to ranolazine
[5] = test system: patients with non-ST elevation acute coronary syndrome; test: MERLIN-TIMI 36: Seattle Angina Questionnaire scores at 4 months; type: in vivo, human
Text: The MERLIN-TIMI 36 secondary efficacy endpoint (ITT) Seattle Angina Questionnaire scores at 4 months for anginal frequency scale are shown in Table 16 below, and scores for physical limitation scale are shown in Table 17 below.

[6] = test system: patients with NSTE-ACS who underwent PCI; test: MERLIN-TIMI 36 post-hoc analysis: VT, CV death and sudden cardiac death after PCI; type: in vivo, human; conditions: n = 737
Description: The incidence of ventricular tachyarrhythmias after percutaneous coronary intervention (PCI) is low, but has been associated with worse clinical outcomes.
The MERLIN-TIMI 36 trial randomized 6560 pts to RAN or placebo (PLA) stratified according to whether an early invasive or conservative medical strategy was planned. The target RAN dose was 1000 mg bid and could be titrated downward at the investigator's discretion. Continuous Holter monitoring was performed for the first 7 days after randomization. Patients (RAN=737, PLA=754) with at least 2 hrs of evaluable Holter data from start of PCI or patients with at least 1 hour of evaluable Holter data if Holter was restarted within 1 hour from start of PCI were included in this post-hoc analysis. The incidence of non-sustained VT episodes (≧100 bpm lasting at least 8 beats but <30 sec) post PCI was compared using Cochran-Mantel-Haenzel test for general association, stratified by intent for early invasive strategy.

[7] = test system: patients with non-ST elevation ACS; test: MERLIN-TIMI 36: HbA1c and hyperglycemia; type: in vivo, human
Text: The proportion of patients in the MERLIN-TIMI 36 study with HBA1C ≧7% is shown in Table 28 below (and see FIG. 15).
The proportion of patients with HBA1C ≧7% (with diabetes or no diabetes) at various times during the MERLIN-TIMI 36 study is shown in Table 29 below (and FIG. 16).
HbA1c data are reported as least-square means. Patients categorized as “diabetic” had been diagnosed as diabetic before or at the time of randomization. Patients categorized as “no diabetes” had not been diagnosed as diabetic before or at the time of randomization. Some patients characterized as “no diabetes” may have been diagnosed as “diabetic” during the trial; however, these patients are still listed in the “no diabetes” category in FIG. 4B.

[8] = PCI patients, average follow-up ~1 year
[9] = within 2 hours from start of PCI
[10] = Baseline (in-hospital visit prior to randomization), all patients dosed n = 3268
[11] = Diabetes at enrollment (n = 1098), Baseline
[12] = Diabetes at enrollment (n = 1098), Final Visit
[13] = Diabetes at enrollment (n = 1098), Month 4
[14] = Diabetes at enrollment (n = 1098), Month 8
[15] = Diabetes at enrollment (n = 1098), Month 16
[16] = Final Visit, all patients dosed n = 3268
[17] = Month 4, all patients dosed n = 3268
[18] = Month 8, all patients dosed n = 3268
[19] = Month 16, all patients dosed n = 3268
[20] = No Diabetes at enrollment (n = 2170), Baseline
[21] = No Diabetes at enrollment (n = 2170), Final Visit
[22] = No Diabetes at enrollment (n = 2170), Month 4
[23] = No Diabetes at enrollment (n = 2170), Month 8
[24] = No Diabetes at enrollment (n = 2170), Month 16

COc1ccccc1OCC(O)CN1CCN(CC(=O)Nc2c(C)cccc2C)CC1 (racemic) [Ranolazine, (±)-N-(2,6-dimethylphenyl)-4-[2-hydroxy-3-(2-methoxyphenoxy)-propyl]-1-piperazineacetamide]
HR, worsening angina (women with NSTE ACS): 0.61 | Supraventricular tachycardia on cECG, no. of patients ([1]; Example 9, patients with valid cECG recording): 1413 | Any clinically significant arrhythmia during 7 day Holter, incidence ([1]; all patients dosed, n = 3268): 71.3% | Any clinically significant arrhythmia during 7 day Holter, no. of pts ([1]; all patients dosed, n = 3268): 2330 | Bradycardic episode during 7 day Holter, incidence ([1]; all patients dosed, n = 3268): 38.5% | Bradycardic episode during 7 day Holter, no. of pts ([1]; all patients dosed, n = 3268): 1257 | New onset atrial fibrillation during 7 day Holter, incidence ([1]; all patients dosed, n = 3268): 1.7% | New onset atrial fibrillation during 7 day Holter, no. of pts ([1]; all patients dosed, n = 3268): 55 | Supraventricular tachycardia (any SVT >=120 bpm) during 7 day Holter, incidence ([1]; all patients dosed, n = 3268): 43.2% | Supraventricular tachycardia (any SVT >=120 bpm) during 7 day Holter, no. of pts ([1]; all patients dosed, n = 3268): 1413 | Ventricular tachycardia (any VT >= 100 bpm >=3 beats) during 7 day Holter, incidence ([1]; all patients dosed, n = 3268): 29.0% | Ventricular tachycardia (any VT >= 100 bpm >=3 beats) during 7 day Holter, no. of pts ([1]; all patients dosed, n = 3268): 948 | Δ in patients with Sustained VT (>=30 sec) ([1]; placebo vs ranolazine): 0 | Δ (%) Polymorphic VT >= 8 beats ([1]; ranolazine vs placebo): −21% | Δ (%) VT ≧ 3 beats (≧100 b/m) ([1]; ranolazine vs placebo): −17% | Δ (%) VT ≧ 4 beats (≧100 b/m) ([1]; ranolazine vs placebo): −30% | Δ (%) VT ≧ 8 beats (<30 sec) ([1]; ranolazine vs placebo): −37% | Death or CV hospitalization endpoint-defining events: CV hospitalization, % of pts with events ([2]; all patients dosed, n = 3268): 89.3% | Death or CV hospitalization endpoint-defining events: CV hospitalization, no. of pts ([2]; all patients dosed, n = 3268): 926 | Death or CV hospitalization endpoint-defining events: Death, % of pts with events ([2]; all patients dosed, n = 3268): 10.7% | Death or CV hospitalization endpoint-defining events: Death, no. of pts ([2]; all patients dosed, n = 3268): 111 | Cardiac arrest NOS, incidence ([2]; human, in vivo): 0.3% | Cardiac arrest NOS, no. of pts ([2]; human, in vivo): 10 | Symptomatic documented arrhythmias - overall, incidence ([2]; human, in vivo): 3.0% | Symptomatic documented arrhythmias - overall, no. of pts ([2]; human, in vivo): 99 | Symptomatic documented bradyarrhythmias, incidence ([2]; human, in vivo): 1.0% | Symptomatic documented bradyarrhythmias, no. of pts ([2]; human, in vivo): 34 | Symptomatic documented supraventricular arrhythmias, incidence ([2]; human, in vivo): 1.2% | Symptomatic documented supraventricular arrhythmias, no. of pts ([2]; human, in vivo): 38 | Symptomatic documented ventricular arrhythmias, incidence ([2]; human, in vivo): 0.7% | Symptomatic documented ventricular arrhythmias, no. of pts ([2]; human, in vivo): 22 | HR, total mortality ([2]; ranolazine vs placebo): 0.99 | RR, CECG events [3]: 0.86 | Clinically reported sudden cardiac death, no. of patients [4]: 56 | SAQ Physical Limitation Scale score, 25th percentile-75th percentile ([5]; N 2339): 55.6-94.4 | SAQ Physical Limitation Scale score, Min-Max ([5]; N 2339): 0-100 | SAQ Anginal Frequency Scale score, 25th percentile-75th percentile ([5]; N 2558): 80-100 | SAQ Anginal Frequency Scale score, Median ([5]; N 2558): 100 | SAQ Anginal Frequency Scale score, Min-Max ([5]; N 2558): 0-100 | CVD (cardiovascular death) - anytime, incidence [6, 8]: 0.9% | CVD (cardiovascular death) - anytime, no. of patients [6, 8]: 7 | SCD (sudden cardiac death) - anytime, incidence [6, 8]: 0.1% | SCD (sudden cardiac death) - anytime, no. of patients [6, 8]: 1 | CVD (cardiovascular death) - 30 days, incidence ([6]; PCI patients): 0.5% | CVD (cardiovascular death) - 30 days, no. of patients ([6]; PCI patients): 4 | SCD (sudden cardiac death) - 30 days, incidence ([6]; PCI patients): 0.1% | SCD (sudden cardiac death) - 30 days, no. of patients ([6]; PCI patients): 1 | VT ≧ 8 beats, % of patients with at least 1 episode [6, 9]: 1.1% | VT ≧ 8 beats, no. of patients with at least 1 episode [6, 9]: 8 | Patients with HbA1C ≧7%, no. [7, 10]: 655 | Proportion of patients with HbA1C ≧7% [7, 10]: 24% | Patients with HbA1C ≧7%, no. [7, 11]: 542 | Proportion of patients with HbA1C ≧7% [7, 11]: 57% | Patients with HbA1C ≧7%, no. [7, 12]: 324 | Proportion of patients with HbA1C ≧7% [7, 12]: 42% | Patients with HbA1C ≧7%, no. [7, 13]: 326 | Proportion of patients with HbA1C ≧7% [7, 13]: 41% | Patients with HbA1C ≧7%, no. [7, 14]: 263 | Proportion of patients with HbA1C ≧7% [7, 14]: 44% | Patients with HbA1C ≧7%, no. [7, 15]: 63 | Proportion of patients with HbA1C ≧7% [7, 15]: 48% | Patients with HbA1C ≧7%, no. [7, 16]: 416 | Proportion of patients with HbA1C ≧7% [7, 16]: 17% | Patients with HbA1C ≧7%, no. [7, 17]: 404 | Proportion of patients with HbA1C ≧7% [7, 17]: 17% | Patients with HbA1C ≧7%, no. [7, 18]: 335 | Proportion of patients with HbA1C ≧7% [7, 18]: 18% | Patients with HbA1C ≧7%, no. [7, 19]: 84 | Proportion of patients with HbA1C ≧7% [7, 19]: 20% | Patients with HbA1C ≧7%, no. [7, 20]: 113 | Proportion of patients with HbA1C ≧7% [7, 20]: 6% | Patients with HbA1C ≧7%, no. [7, 21]: 92 | Proportion of patients with HbA1C ≧7% [7, 21]: 6% | Patients with HbA1C ≧7%, no. [7, 22]: 78 | Proportion of patients with HbA1C ≧7% [7, 22]: 5% | Patients with HbA1C ≧7%, no. [7, 23]: 72 | Proportion of patients with HbA1C ≧7% [7, 23]: 6% | Patients with HbA1C ≧7%, no. [7, 24]: 21 | Proportion of patients with HbA1C ≧7% [7, 24]: 7%
